Source: patent US5132402A, “Adsorbent, method for production thereof, and method for use thereof” (Agency of Industrial Science and Technology, priority 1987, dated 1992)
Where a SMILES comes first, the peptide text is derived from it. Bridges are numbered along the chain shown (N, C = ends).

Test: Solubility of the peptide in the phosphate buffer solution used for immobilization
Format: physicochemical
Conditions: phosphate buffer solution (0.02 mol/liter) of pH 7.4
Experimental: (a) The immobilization procedure of Example 2(a) was repeated, except that 20 mg of the peptide obtained in Synthesizing Example 18 was used in place of 20 mg of the peptide obtained in Synthesizing Example 2.

## CC(C)C[C@H](NC(=O)[C@H](Cc1ccc(O)cc1)NC(=O)[C@@H]1CCCN1C(=O)[C@@H](NC(=O)[C@H](CC(=O)O)NC(=O)[C@@H]1CCCN1C(=O)[C@@H]1CSSC[C@H](NC(=O)[C@@H](NC(=O)[C@H](Cc2ccc(O)cc2)NC(=O)[C@H](Cc2ccc(O)cc2)NC(=O)[C@@H](NC(=O)[C@H](Cc2c[nH]c3ccccc23)NC(=O)[C@H](Cc2c[nH]cn2)NC(=O)[C@H](CCCCN)NC(=O)[C@H](Cc2c[nH]c3ccccc23)NC(=O)CNC(=O)[C@H](CC(C)C)NC(=O)[C@@H](N)CC(C)C)C(C)C)[C@@H](C)O)C(=O)N1)[C@@H](C)O)C(=O)N[C@@H](CC(=O)O)C(=O)O [Synthesizing Example 18] (H-LLGWKHWVYYTCCPDTPYLD-OH; disulfide 12-13)
  solubility in the phosphate buffer solution: low solubility
